Experimental findings from US20230257396A1, “MACROCYCLES AND THEIR USE” (BLOSSOMHILL THERAPEUTICS, INC., priority 2020, published 2023) are described below.

Molecules are shown by their SMILES.

Test in all cases: KINOMEscan kinase binding assay (Eurofins/DiscoveRx), % Ctrl
In test [1] the target is T1, kinases (Homo sapiens, UniProt P10721, V559D).
T1 construct: purchased Eurofins/DiscoveRx; host or cells: E. coli BL21-derived host (T7 phage display) for most kinases; HEK-293 for the rest
The gist of the method:
(§1)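 Competition binding, 1 h RT: phage-tagged or HEK-293-expressed DNA-tagged kinase + immobilized ligand + compound. Eluate kinase by qPCR. % Ctrl = (test − positive ctrl)/(negative ctrl − positive ctrl) × 100; lower means stronger binding.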

Test [2] concerns the target T2, kinases (Homo sapiens, UniProt P00519).
T2 construct: purchased Eurofins/DiscoveRx; host or cells: E. coli BL21-derived host (T7 phage display) for most kinases; HEK-293 for the rest
An outline of the steps: as §1

In test [3] the target is T3, kinases (Homo sapiens, UniProt P10721, D816H).
T3 construct: purchased Eurofins/DiscoveRx; host or cells: E. coli BL21-derived host (T7 phage display) for most kinases; HEK-293 for the rest
An outline of the steps: as §1

Test [4] addresses T4, kinases (Homo sapiens, UniProt P00519, E255K).
T4 construct: purchased Eurofins/DiscoveRx; host or cells: E. coli BL21-derived host (T7 phage display) for most kinases; HEK-293 for the rest
An outline of the steps: as §1

Test [5] concerns the target T5, kinases (Homo sapiens, UniProt P07949, M918T).
T5 construct: purchased Eurofins/DiscoveRx; host or cells: E. coli BL21-derived host (T7 phage display) for most kinases; HEK-293 for the rest
The gist of the method:
as §1

For test [6], the target named is T6, kinases (Homo sapiens, UniProt P36888).
T6 construct: purchased Eurofins/DiscoveRx; host or cells: E. coli BL21-derived host (T7 phage display) for most kinases; HEK-293 for the rest
T6 sequence (P36888 27-993): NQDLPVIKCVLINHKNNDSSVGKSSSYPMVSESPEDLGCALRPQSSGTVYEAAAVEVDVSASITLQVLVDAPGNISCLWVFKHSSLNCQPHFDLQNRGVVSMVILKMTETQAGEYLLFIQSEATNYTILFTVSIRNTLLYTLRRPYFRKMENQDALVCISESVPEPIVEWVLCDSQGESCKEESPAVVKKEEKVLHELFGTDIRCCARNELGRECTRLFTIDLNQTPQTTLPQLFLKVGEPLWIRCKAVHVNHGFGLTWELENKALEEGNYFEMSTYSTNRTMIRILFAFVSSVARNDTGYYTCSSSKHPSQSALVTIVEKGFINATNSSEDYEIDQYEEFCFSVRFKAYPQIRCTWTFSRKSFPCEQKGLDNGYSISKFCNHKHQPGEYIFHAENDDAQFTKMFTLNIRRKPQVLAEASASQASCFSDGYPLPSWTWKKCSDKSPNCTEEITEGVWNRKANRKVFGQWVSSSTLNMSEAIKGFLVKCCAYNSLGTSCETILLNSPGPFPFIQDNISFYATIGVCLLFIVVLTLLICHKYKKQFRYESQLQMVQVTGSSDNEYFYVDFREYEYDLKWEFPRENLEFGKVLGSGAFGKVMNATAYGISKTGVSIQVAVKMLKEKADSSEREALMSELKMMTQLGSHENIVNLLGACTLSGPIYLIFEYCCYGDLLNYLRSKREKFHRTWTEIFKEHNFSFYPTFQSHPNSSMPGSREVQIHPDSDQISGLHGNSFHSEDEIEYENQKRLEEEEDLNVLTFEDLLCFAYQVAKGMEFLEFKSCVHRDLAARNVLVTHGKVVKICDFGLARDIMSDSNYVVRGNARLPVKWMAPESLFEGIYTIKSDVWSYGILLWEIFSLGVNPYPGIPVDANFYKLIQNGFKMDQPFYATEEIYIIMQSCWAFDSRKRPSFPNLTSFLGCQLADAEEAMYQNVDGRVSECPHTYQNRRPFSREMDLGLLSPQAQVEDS
An outline of the steps:
as §1

For test [7], the target named is T7, kinases (Homo sapiens, UniProt P42684).
T7 construct: purchased Eurofins/DiscoveRx; host or cells: E. coli BL21-derived host (T7 phage display) for most kinases; HEK-293 for the rest
The gist of the method:
as §1

Test [8] addresses T8, kinases (Homo sapiens, UniProt P00519, T315I).
T8 construct: purchased Eurofins/DiscoveRx; host or cells: E. coli BL21-derived host (T7 phage display) for most kinases; HEK-293 for the rest
An outline of the steps:
as §1

For test [9], the target named is T9, kinases (Homo sapiens, UniProt P00533, DEL752-759).
T9 construct: purchased Eurofins/DiscoveRx; host or cells: E. coli BL21-derived host (T7 phage display) for most kinases; HEK-293 for the rest
The gist of the method:
as §1

Test [10] has as its target T10, kinases (Homo sapiens, UniProt P00533, L861Q).
T10 construct: purchased Eurofins/DiscoveRx; host or cells: E. coli BL21-derived host (T7 phage display) for most kinases; HEK-293 for the rest
The gist of the method: as §1

In test [11] the target is T11, kinases (Homo sapiens, UniProt P16234).
T11 construct: purchased Eurofins/DiscoveRx; host or cells: E. coli BL21-derived host (T7 phage display) for most kinases; HEK-293 for the rest
The gist of the method:
as §1

Test [12] addresses T12, kinases (Homo sapiens, UniProt P07949).
T12 construct: purchased Eurofins/DiscoveRx; host or cells: E. coli BL21-derived host (T7 phage display) for most kinases; HEK-293 for the rest
The gist of the method:
as §1

The target of test [13] is T13, kinases (Homo sapiens, UniProt P00519, Q252H).
T13 construct: purchased Eurofins/DiscoveRx; host or cells: E. coli BL21-derived host (T7 phage display) for most kinases; HEK-293 for the rest
The gist of the method: as §1

T5 sequence (P07949 29-1114 M918T): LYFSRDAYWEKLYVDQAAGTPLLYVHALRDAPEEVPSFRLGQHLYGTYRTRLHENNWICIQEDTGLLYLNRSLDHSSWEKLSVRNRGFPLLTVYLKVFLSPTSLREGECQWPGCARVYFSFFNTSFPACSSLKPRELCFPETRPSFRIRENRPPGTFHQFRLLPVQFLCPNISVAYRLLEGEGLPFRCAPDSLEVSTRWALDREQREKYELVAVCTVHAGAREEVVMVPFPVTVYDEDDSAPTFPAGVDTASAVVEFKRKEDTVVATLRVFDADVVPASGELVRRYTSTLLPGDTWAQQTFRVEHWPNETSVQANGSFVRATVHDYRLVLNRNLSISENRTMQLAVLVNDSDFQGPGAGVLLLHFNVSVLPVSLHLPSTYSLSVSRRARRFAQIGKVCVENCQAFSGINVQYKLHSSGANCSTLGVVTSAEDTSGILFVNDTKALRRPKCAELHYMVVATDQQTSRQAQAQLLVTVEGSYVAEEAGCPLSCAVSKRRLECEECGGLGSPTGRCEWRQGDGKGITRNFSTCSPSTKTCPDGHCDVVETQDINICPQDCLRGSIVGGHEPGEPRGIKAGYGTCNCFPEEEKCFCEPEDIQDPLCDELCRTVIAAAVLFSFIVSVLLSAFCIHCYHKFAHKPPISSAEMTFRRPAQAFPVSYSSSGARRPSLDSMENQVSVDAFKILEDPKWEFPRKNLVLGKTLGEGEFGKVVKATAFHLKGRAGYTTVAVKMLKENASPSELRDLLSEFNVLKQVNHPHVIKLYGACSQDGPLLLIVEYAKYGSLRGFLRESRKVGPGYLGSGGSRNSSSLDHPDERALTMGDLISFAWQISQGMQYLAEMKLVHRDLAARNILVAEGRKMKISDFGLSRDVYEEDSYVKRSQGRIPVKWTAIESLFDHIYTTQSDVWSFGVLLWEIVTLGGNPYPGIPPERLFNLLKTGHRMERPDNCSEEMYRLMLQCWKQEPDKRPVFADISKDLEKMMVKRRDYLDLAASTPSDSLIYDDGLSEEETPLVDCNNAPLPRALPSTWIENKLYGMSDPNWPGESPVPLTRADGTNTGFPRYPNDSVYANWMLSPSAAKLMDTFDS
T1 sequence (P10721 26-976 V559D): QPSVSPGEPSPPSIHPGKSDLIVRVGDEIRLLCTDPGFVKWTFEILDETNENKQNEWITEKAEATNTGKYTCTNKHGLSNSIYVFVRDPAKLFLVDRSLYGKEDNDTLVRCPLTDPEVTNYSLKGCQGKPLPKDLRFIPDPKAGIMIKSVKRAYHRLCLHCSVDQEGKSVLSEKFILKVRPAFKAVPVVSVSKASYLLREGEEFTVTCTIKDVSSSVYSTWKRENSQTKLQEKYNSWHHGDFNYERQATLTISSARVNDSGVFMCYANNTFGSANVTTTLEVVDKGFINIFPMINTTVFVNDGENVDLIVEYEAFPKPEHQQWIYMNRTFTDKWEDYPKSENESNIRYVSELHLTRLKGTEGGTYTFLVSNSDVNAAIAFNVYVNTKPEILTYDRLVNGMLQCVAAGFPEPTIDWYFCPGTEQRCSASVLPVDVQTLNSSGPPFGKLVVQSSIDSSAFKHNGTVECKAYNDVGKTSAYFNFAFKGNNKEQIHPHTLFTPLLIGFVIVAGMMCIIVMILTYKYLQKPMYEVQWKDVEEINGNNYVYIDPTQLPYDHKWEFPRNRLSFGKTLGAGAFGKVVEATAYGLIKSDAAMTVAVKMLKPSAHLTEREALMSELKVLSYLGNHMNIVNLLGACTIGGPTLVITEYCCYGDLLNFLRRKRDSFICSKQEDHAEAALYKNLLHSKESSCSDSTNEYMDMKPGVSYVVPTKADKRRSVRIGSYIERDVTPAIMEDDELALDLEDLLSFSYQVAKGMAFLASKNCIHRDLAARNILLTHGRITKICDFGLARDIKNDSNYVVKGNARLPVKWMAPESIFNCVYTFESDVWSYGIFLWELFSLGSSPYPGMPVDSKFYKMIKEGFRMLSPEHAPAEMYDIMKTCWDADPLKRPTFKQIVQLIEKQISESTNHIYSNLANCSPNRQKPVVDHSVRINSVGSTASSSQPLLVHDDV
T7 sequence (P42684 whole entry): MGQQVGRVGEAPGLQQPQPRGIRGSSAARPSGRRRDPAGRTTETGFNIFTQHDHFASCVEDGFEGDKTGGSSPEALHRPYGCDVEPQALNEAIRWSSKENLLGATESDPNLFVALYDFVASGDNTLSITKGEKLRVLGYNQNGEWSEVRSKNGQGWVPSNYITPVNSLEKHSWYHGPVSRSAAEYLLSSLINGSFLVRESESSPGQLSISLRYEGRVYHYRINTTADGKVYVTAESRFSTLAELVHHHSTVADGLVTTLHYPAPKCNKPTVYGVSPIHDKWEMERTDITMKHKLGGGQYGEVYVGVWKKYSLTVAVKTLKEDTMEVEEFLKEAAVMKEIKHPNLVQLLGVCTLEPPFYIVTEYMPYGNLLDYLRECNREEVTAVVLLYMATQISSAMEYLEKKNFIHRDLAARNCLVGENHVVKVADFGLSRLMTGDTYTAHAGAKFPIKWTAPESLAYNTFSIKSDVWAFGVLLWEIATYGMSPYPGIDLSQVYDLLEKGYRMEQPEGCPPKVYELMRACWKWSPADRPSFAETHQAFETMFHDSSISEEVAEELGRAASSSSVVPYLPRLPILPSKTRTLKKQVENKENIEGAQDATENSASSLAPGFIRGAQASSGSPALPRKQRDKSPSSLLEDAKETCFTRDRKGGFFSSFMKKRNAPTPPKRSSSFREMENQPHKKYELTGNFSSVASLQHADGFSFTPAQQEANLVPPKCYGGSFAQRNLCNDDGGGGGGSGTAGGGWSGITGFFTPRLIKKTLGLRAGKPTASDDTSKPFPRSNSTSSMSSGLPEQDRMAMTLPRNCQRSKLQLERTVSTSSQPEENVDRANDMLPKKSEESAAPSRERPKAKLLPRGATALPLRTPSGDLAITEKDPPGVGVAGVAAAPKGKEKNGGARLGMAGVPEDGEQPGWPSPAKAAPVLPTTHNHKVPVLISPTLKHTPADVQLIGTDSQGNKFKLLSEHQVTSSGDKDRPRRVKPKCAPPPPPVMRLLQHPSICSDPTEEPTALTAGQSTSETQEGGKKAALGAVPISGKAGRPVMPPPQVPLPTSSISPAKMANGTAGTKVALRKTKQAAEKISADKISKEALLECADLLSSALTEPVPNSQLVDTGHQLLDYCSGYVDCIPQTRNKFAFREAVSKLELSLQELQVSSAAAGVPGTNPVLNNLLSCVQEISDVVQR
T11 sequence (P16234 24-1089): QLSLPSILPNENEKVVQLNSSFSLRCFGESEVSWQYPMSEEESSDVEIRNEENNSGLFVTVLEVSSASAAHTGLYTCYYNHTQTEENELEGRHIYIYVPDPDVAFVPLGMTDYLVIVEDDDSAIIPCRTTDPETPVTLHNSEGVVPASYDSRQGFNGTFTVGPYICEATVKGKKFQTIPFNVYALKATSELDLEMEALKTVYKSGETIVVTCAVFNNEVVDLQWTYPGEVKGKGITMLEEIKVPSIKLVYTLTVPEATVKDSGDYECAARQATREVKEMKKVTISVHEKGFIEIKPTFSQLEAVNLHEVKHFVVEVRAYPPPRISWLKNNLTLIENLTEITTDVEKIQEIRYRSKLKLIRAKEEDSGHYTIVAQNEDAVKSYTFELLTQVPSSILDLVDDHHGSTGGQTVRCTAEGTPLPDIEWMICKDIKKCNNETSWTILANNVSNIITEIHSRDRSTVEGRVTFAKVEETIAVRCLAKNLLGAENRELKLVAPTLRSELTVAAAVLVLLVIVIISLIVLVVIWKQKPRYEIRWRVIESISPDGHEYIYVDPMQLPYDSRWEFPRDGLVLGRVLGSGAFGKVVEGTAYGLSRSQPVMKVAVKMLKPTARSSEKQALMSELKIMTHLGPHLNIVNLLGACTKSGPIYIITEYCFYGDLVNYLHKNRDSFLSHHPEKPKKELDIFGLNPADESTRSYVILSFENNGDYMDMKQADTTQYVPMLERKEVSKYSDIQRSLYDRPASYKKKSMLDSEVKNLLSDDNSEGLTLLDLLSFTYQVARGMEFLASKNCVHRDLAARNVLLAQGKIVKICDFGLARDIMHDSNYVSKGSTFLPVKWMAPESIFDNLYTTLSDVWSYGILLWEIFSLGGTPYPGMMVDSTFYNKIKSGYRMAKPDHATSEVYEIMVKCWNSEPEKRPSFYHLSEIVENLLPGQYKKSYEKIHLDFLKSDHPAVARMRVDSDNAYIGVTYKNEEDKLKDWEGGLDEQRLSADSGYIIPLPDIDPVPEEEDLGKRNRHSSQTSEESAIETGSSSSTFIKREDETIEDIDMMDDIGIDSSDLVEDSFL
T12 sequence (P07949 29-1114): as the sequence (P07949 29-1114 M918T) above, with T890M counted along it
T3 sequence (P10721 26-976 D816H): as the sequence (P10721 26-976 V559D) above, with D534V, D791H counted along it

On to `CN1CCSCCOc2cc3c(cc2Cl)NC(=O)/C3=C\c2[nH]ccc2C1=O` [Ex. 153], for which, in [1] (target KIT(V559D); 1 μM), the “% Ctrl, KIT(V559D)” value is 0.3 % Ctrl. The “% Ctrl, ABL1-nonphosphorylated” value in test [2] (target ABL1-nonphosphorylated; 1 μM) stood at 1.3 % Ctrl. For the same compound, the “% Ctrl, ABL1-phosphorylated” value in test [2] (target ABL1-phosphorylated; 1 μM) is 18 % Ctrl. For the same compound, the “% Ctrl, KIT(D816H)” value in test [3] (target KIT(D816H); 1 μM) turned out to be 27 % Ctrl. In addition, in [4] (target ABL1(E255K)-phosphorylated; 1 μM), the “% Ctrl, ABL1(E255K)-phosphorylated” value was 8.4 % Ctrl. In addition, the “% Ctrl, RET(M918T)” value in [5] (target RET(M918T); 1 μM) stood at 1 % Ctrl. The “% Ctrl, FLT3-autoinhibited” value in test [6] (target FLT3-autoinhibited; 1 μM) was 26 % Ctrl. Further, the “% Ctrl, FLT3” value in test [6] (target FLT3; 1 μM) is reported as 1.6 % Ctrl. In test [7] (target ABL2; 1 μM), the “% Ctrl, ABL2” value was 35 % Ctrl. For the same compound, in [8] (target ABL1(T315I)-nonphosphorylated; 1 μM), the “% Ctrl, ABL1(T315I)-nonphosphorylated” value was 17 % Ctrl. Also, the “% Ctrl, ABL1(T315I)-phosphorylated” value in test [8] (target ABL1(T315I)-phosphorylated; 1 μM) amounted to 25 % Ctrl. Besides, in [9] (target EGFR(S752-I759del); 1 μM), the “% Ctrl, EGFR(S752-I759del)” value was 100 % Ctrl. The “% Ctrl, EGFR(L861Q)” value in test [10] (target EGFR(L861Q); 1 μM) came to 43 % Ctrl. Also, the “% Ctrl, PDGFRA” value in test [11] (target PDGFRA; 1 μM) stood at 9.1 % Ctrl. Further, the “% Ctrl, RET” value in test [12] (target RET; 1 μM) is 2.4 % Ctrl. Further, in test [13] (target ABL1(Q252H)-nonphosphorylated; 1 μM), the “% Ctrl, ABL1(Q252H)-nonphosphorylated” value came to 1.8 % Ctrl. In test [13] (target ABL1(Q252H)-phosphorylated; 1 μM), the “% Ctrl, ABL1(Q252H)-phosphorylated” value was 7.9 % Ctrl.
As to `Cc1cc2c([nH]1)/C=C1\C(=O)Nc3ccc(cc31)-c1c(noc1C(C)C)COCCN(C)C2=O` [Ex. 161, [3a(4)Z]-9-methyl-16-(propan-2-yl)-10,11-dihydro-2H,13H-1,17-(ethanediylidene)[1,2]oxazolo[4,3-m]dipyrrolo[3,2-f:3′,4′-i][1,4]oxazacyclopentadecine-3,8(5H,9H)-dione], in test [1] (1 μM; target KIT(V559D)), the “% Ctrl, KIT(V559D)” value was 92 % Ctrl. Moreover, the “% Ctrl, ABL1-nonphosphorylated” value in test [2] (1 μM; target ABL1-nonphosphorylated) stood at 100 % Ctrl. For the same compound, in [2] (1 μM; target ABL1-phosphorylated), the “% Ctrl, ABL1-phosphorylated” value is given as 97 % Ctrl. For the same compound, in test [3] (1 μM; target KIT(D816H)), the “% Ctrl, KIT(D816H)” value came to 100 % Ctrl. Also, the “% Ctrl, ABL1(E255K)-phosphorylated” value in test [4] (1 μM; target ABL1(E255K)-phosphorylated) came to 86 % Ctrl. Moreover, the “% Ctrl, RET(M918T)” value in [5] (1 μM; target RET(M918T)) was determined as 92 % Ctrl. In test [6] (1 μM; target FLT3), the “% Ctrl, FLT3” value turned out to be 100 % Ctrl. The “% Ctrl, FLT3-autoinhibited” value in test [6] (1 μM; target FLT3-autoinhibited) was 100 % Ctrl. Moreover, in [7] (1 μM; target ABL2), the “% Ctrl, ABL2” value is given as 87 % Ctrl. Besides, the “% Ctrl, ABL1(T315I)-nonphosphorylated” value in test [8] (1 μM; target ABL1(T315I)-nonphosphorylated) was determined as 90 % Ctrl. Moreover, the “% Ctrl, ABL1(T315I)-phosphorylated” value in test [8] (1 μM; target ABL1(T315I)-phosphorylated) turned out to be 85 % Ctrl. Further, the “% Ctrl, EGFR(S752-I759del)” value in test [9] (1 μM; target EGFR(S752-I759del)) is 81 % Ctrl. Besides, the “% Ctrl, EGFR(L861Q)” value in test [10] (1 μM; target EGFR(L861Q)) is 100 % Ctrl. In addition, in test [11] (1 μM; target PDGFRA), the “% Ctrl, PDGFRA” value was determined as 100 % Ctrl. The “% Ctrl, RET” value in [12] (1 μM; target RET) is given as 97 % Ctrl. In addition, the “% Ctrl, ABL1(Q252H)-nonphosphorylated” value in test [13] (1 μM; target ABL1(Q252H)-nonphosphorylated) stood at 100 % Ctrl. In addition, the “% Ctrl, ABL1(Q252H)-phosphorylated” value in [13] (1 μM; target ABL1(Q252H)-phosphorylated) came to 79 % Ctrl.
